The test system of data set [1] is Hepatic microsomes from rats pretreated with Phenobarbital (CYP2B). The data set is described as follows: Inhibition of 3-ABA oxidation by CYPs in hepatic microsomes of phenobarbital-pretreated rats. The class given is biochemical, rat. The following applies: inhibitor 0.01–0.1 mM, 20 min, 37 °C. How it is done: (§1) The study was conducted in accordance with the Regulations for the Care and Use of Laboratory Animals (311/1997, Ministry of Agriculture, Czech Republic), which complies with Declaration of Helsinki. Microsomes from livers of ten male untreated Wistar rats and those of rats pretreated with β-NF (Sigma, UK) and PB were prepared by the procedure described previously (Stiborová et al., [2002]). Rat liver microsomes contained 0.6 nmol CYP/mg protein. Hepatic microsomes of rats treated with β-NF and PB contained 1.3 and 1.5 nmol CYP/mg proteins, respectively.
Incubation mixtures, in a final volume of 500 µl, consisted of 100 mM potassium phosphate buffer (pH 7.4), 10 mM NADPH, 0.5 mg of microsomal protein and 5–50 µM 3-ABA (dissolved in dimethyl sulfoxide, DMSO). The reaction was initiated by adding 3-ABA. Incubations with rat microsomes were carried out at 37 °C for 5–180 minutes. […]
The following chemicals were used to inhibit 3-ABA oxidation in the presence of rat hepatic microsomes: α-naphthoflavone (α-NF), which inhibits CYP1A1 and 1A2, furafylline, which inhibits CYP1A2, diamantane, an inhibitor of CYP2B, sulfophenazole, which inhibits CYP2C and diethyldithiocarbamate, which inhibits CYP2E1 (Rendic and DiCarlo, [1997]). […] After the incubation, 3-ABA and its metabolites were extracted and analyzed by HPLC as described above.

Details of data set [2]: method as in Seidel et al., [2002]. The following applies: smoking and nonsmoking salt mining workers exposed to diesel emissions; ref Seidel et al., [2002]; cited from earlier work.
The test system of another data set is CYP1A1/2. The data set is described as follows: Inhibition of 3-ABA oxidation by CYPs in hepatic microsomes of β-naphthoflavone-pretreated rats. The class given is biochemical. The following applies: male, Wistar, rat, liver microsomes from β-naphthoflavone-pretreated rats, pH 7.4, probe 3-ABA (5-50 µM), hepatic microsomes from rats pretreated with β-naphtoflavone (CYP1A1/2), inhibitor 0.01–0.1 mM, 37 °C.

For data set [3], the system named is Control rat hepatic microsomes (CYPs). Kind of data set: Inhibition of 3-ABA oxidation by CYPs in hepatic microsomes of untreated (control) rats. The class given is biochemical. The following applies: hepatic microsomes from control rats; inhibitor 0.01–0.1 mM, 20 min, 37 °C. As for the experimental part:
The study was conducted in accordance with the Regulations for the Care and Use of Laboratory Animals (311/1997, Ministry of Agriculture, Czech Republic), which complies with Declaration of Helsinki.

A further data set concerns Salmonella. The arrangement: method as in Enya et al., [1997]; Seidel et al., [2002]; Arlt, [2005]. The following applies: ref Enya et al., [1997]; Seidel et al., [2002]; Arlt, [2005]; cited from earlier work.
The test system of a further data set is rats. Details: method as in Seidel et al., [2002]; Arlt, [2005]; Nagy et al., [2005]. The following applies: intratracheal instillation, ref Seidel et al., [2002], Arlt, [2005], Nagy et al.; cited from earlier work.
The test system of data set [4] is rat hepatic CYP enzymes in microsomes. The data set is described as follows: Oxidation of 3-ABA by rat hepatic microsomes, metabolites separated by HPLC. The class given is in vitro ADME. The following applies: NADPH, 37 °C. How it is done: as §1
Incubation mixtures, in a final volume of 500 µl, consisted of 100 mM potassium phosphate buffer (pH 7.4), 10 mM NADPH, 0.5 mg of microsomal protein and 5–50 µM 3-ABA (dissolved in dimethyl sulfoxide, DMSO). The reaction was initiated by adding 3-ABA. Incubations with rat microsomes were carried out at 37 °C for 5–180 minutes. Control incubations were carried out either (1) without the enzymatic system (microsomes) or (2) with microsomes and 3-ABA, but without NADPH. Then, 5 µl of 1 mM phenacetine in methanol was added as an internal standard and 3-ABA and its metabolites were extracted twice with ethyl acetate (2 × 1.5 ml). The extracts were evaporated to dryness; residues were dissolved in 30 µl of methanol and subjected to reverse-phase (RP)-HPLC to evaluate the amounts of residual 3-ABA and its metabolites. […]

Each structure is given as a SMILES string.

Description for CYP1A1/2: The HPLC was performed with a reversed phase column (Nucleosil 100-5 C18, Macherey-Nagel, Duren, Germany, 25 cm×4.6 mm, 5 µm) proceeded by a C-18 guard column, using isocratic elution conditions of 70% methanol in distilled water with a flow rate of 0.6 ml/min.
Inhibitors were dissolved in 7.5 µl of methanol or water (in the case of diethyldithiocarbamate), to yield final concentrations of 0.01–0.1 mM in the incubation mixtures. […] After the incubation, 3-ABA and its metabolites were extracted and analyzed by HPLC as described above.

Take `C1C2CC3C4CC5CC(C14)C(C2)C3C5` [Diamantane, diamantane]: the IC50 in data set [1] is 0.9 µM.

With `Nc1ccc2ccc3cccc4ccc1c2c34` [1-aminopyrene], the “Concentration detected in urine” value in data set [2] was 2–200 ng/24 h urine.

On to `O=c1cc(-c2ccccc2)oc2c1ccc1ccccc12` [α-naphtoflavone, α-naphthoflavone], for which the IC50 at 20 min in the data set with CYP1A1/2 was 10.9 µM.

As for `Cc1nc2c([nH]1)c(=O)n(C)c(=O)n2Cc1ccco1` [Furafylline, furafylline], the IC50 at 20 min in the data set on CYP1A1/2 was found to be 16.6 µM.

The compound `CCN(CC)C(=S)S` [DDTC, diethyldithiocarbamate] displayed an IC50 in data set [3] of 96.8 µM.

In the case of `O=C1c2ccccc2-c2ccc([N+](=O)[O-])c3cccc1c23` [3-NBA, 3-nitro-7H-benz[de]anthracen-7-one], the “Mutagenic potency in the Ames Salmonella assay” value in the data set on Salmonella was “extremely high mutagenic potency”. Moreover, in the data set with rats, the Carcinogenicity in rats entry is listed as “carcinogenic in rats, causing lung tumours”.

Turning to `Nc1ccc2c3c(cccc13)C(=O)c1ccccc1-2` [3-ABA, 3-Aminobenzanthrone], in data set [4], the “Metabolites formed by oxidation in rat hepatic microsomes” value is reported as “up to three metabolites”. Further, the “Concentration detected in urine” value in data set [2] is on record as 1–143 ng/24 h urine.

The values are drawn from PMC2993481, “Rat cytochromes P450 oxidize 3-aminobenzanthrone, a human metabolite of the carcinogenic environmental pollutant 3-nitrobenzanthrone” (Interdisciplinary Toxicology, 2010).
